Results as given in patent US20110053773A1, “METHODS OF IMPROVING NUTRITIONAL VALUE OF PLANTS” (UNIVERSITY OF TENNESSEE RESEARCH FOUNDATION, priority 2009, published 2011).

What was measured:
basil ‘Genovese’ = assay: Yield, fresh weight of basil after insecticide, fungicide, PGRs and safeners (Example 4, Table 10); assay type: in vivo; conditions: DA-A, check 31.8
Procedure: (§1) Greenhouse and laboratory studies were conducted to ascertain the tolerance and nutritional quality differences following postemergence applications of the insecticide chlorpyrifos, the fungicide chlorothalonil, the PGRs mepiquat-chloride and paclobutrazol, and the safeners napthalic anhydride and isoxadifen-ethyl on kale ‘Red Russian’ and basil ‘Genovese’. Visual injury was rated based on general phytotoxicity, chlorosis, and visual stunting and each measurement was based on a percent scale from 0 to 100 where 0 equals no visual response and 100 equals complete plant death. Kale and basil were both harvested approximately 4 weeks after treatments and plants were pooled over replicates for content analysis of crude protein, crude amino acid content, acid detergent fiber, neutral detergent fiber, total fatty acids, and/or key mineral content (including Na, Ca, P, Mg, K, Fe, Mn, Zn, and Cu). In addition, the amounts of key individual amino acids (aspartic acid, threonine, glutamic acid, proline, glycine, cysteine, valine, leucine, isoleucine, methionine, and lysine) and composite classifications of fatty acid (saturated fatty acids, monounsaturated fatty acids, polyunsaturated fatty acids) were also analyzed from these sub-samples for kale (Tables 10-14).

basil 'Genovese' [1] = assay: Content analysis of basil: protein, minerals (Example 4, Tables 10-11); assay type: in vivo; conditions: 28 DA-A
Procedure: as §1

basil 'Genovese' [2] = assay: Visual injury of basil after insecticide, fungicide, PGRs, safeners (Example 4)
Procedure: as §1

[3] = rates g ai/ha: chlropyrifos 1120, chlorothalonil 2630, paclobutrazol 3.23, mepiquat-chloride 12.3, Isoxadifen 8, Napthalic anhydride 264, + NIS 0.25 % v/v
[4] = rates g ai/ha: chlropyrifos 3370, chlorothalonil 7900, paclobutrazol 9.7, mepiquat-chloride 37, Isoxadifen 16, Napthalic anhydride 527, + NIS 0.25 % v/v
[5] = rates g ai/ha: chlroprifos 3370, chlorothalonil 7900, paclobutrazol 9.7, mepiquat-chloride 37, Isoxadifen 16, Napthalic anhydride 527, + NIS 0.25 % v/v
[6] = 7 DA-A, rates g ai/ha: chlropyrifos 1120, chlorothalonil 2630, paclobutrazol 3.23, mepiquat-chloride 12.3, Isoxadifen 8, Napthalic anhydride 264, + NIS 0.25 % v/v
[7] = 7 DA-A, rates g ai/ha: chlropyrifos 3370, chlorothalonil 7900, paclobutrazol 9.7, mepiquat-chloride 37, Isoxadifen 16, Napthalic anhydride 527, + NIS 0.25 % v/v
[8] = 14 DA-A, rates g ai/ha: chlropyrifos 1120, chlorothalonil 2630, paclobutrazol 3.23, mepiquat-chloride 12.3, Isoxadifen 8, Napthalic anhydride 264, + NIS 0.25 % v/v
[9] = 14 DA-A, rates g ai/ha: chlropyrifos 3370, chlorothalonil 7900, paclobutrazol 9.7, mepiquat-chloride 37, Isoxadifen 16, Napthalic anhydride 527, + NIS 0.25 % v/v
[10] = 28 DA-A, rates g ai/ha: chlropyrifos 1120, chlorothalonil 2630, paclobutrazol 3.23, mepiquat-chloride 12.3, Isoxadifen 8, Napthalic anhydride 264, + NIS 0.25 % v/v
[11] = 28 DA-A, rates g ai/ha: chlropyrifos 3370, chlorothalonil 7900, paclobutrazol 9.7, mepiquat-chloride 37, Isoxadifen 16, Napthalic anhydride 527, + NIS 0.25 % v/v

CCOC(=O)C1=NOC(c2ccccc2)(c2ccccc2)C1 [isoxadifen, isoxadifen-ethyl]
Yield Fresh weight (basil ‘Genovese’; [3]): 34.2 grams
Yield Fresh weight (basil ‘Genovese’; [4]): 36.9 grams
ADF, Percent Increase Over the Untreated Check (on a % dry matter basis) (basil 'Genovese' [1]; [5]): 13 % check
Calcium, Percent Increase Over the Untreated Check (on a % dry matter basis) (basil 'Genovese' [1]; [5]): 6 % check
Copper, Percent Increase Over the Untreated Check (on a % dry matter basis) (basil 'Genovese' [1]; [5]): 0 % check
Iron, Percent Increase Over the Untreated Check (on a % dry matter basis) (basil 'Genovese' [1]; [5]): 27 % check
Magnesium, Percent Increase Over the Untreated Check (on a % dry matter basis) (basil 'Genovese' [1]; [5]): 12 % check
Manganese, Percent Increase Over the Untreated Check (on a % dry matter basis) (basil 'Genovese' [1]; [5]): 118 % check
NDF, Percent Increase Over the Untreated Check (on a % dry matter basis) (basil 'Genovese' [1]; [5]): 0 % check
Phosphorous, Percent Increase Over the Untreated Check (on a % dry matter basis) (basil 'Genovese' [1]; [5]): 28 % check
Potassium, Percent Increase Over the Untreated Check (on a % dry matter basis) (basil 'Genovese' [1]; [5]): 16 % check
Protein, Percent Increase Over the Untreated Check (on a % dry matter basis) (basil 'Genovese' [1]; [5]): 22 % check
Sodium, Percent Increase Over the Untreated Check (on a % dry matter basis) (basil 'Genovese' [1]; [5]): 17 % check
Soluble protein, Percent Increase Over the Untreated Check (on a % dry matter basis) (basil 'Genovese' [1]; [5]): 4 % check
Zinc, Percent Increase Over the Untreated Check (on a % dry matter basis) (basil 'Genovese' [1]; [5]): 34 % check
ADF, Percent Increase Over the Untreated Check (on a % dry matter basis) (basil 'Genovese' [1]; [3]): 6 % check
Calcium, Percent Increase Over the Untreated Check (on a % dry matter basis) (basil 'Genovese' [1]; [3]): −2 % check
Copper, Percent Increase Over the Untreated Check (on a % dry matter basis) (basil 'Genovese' [1]; [3]): 0 % check
Iron, Percent Increase Over the Untreated Check (on a % dry matter basis) (basil 'Genovese' [1]; [3]): 25 % check
Magnesium, Percent Increase Over the Untreated Check (on a % dry matter basis) (basil 'Genovese' [1]; [3]): 9 % check
Manganese, Percent Increase Over the Untreated Check (on a % dry matter basis) (basil 'Genovese' [1]; [3]): 10 % check
NDF, Percent Increase Over the Untreated Check (on a % dry matter basis) (basil 'Genovese' [1]; [3]): 1 % check
Phosphorous, Percent Increase Over the Untreated Check (on a % dry matter basis) (basil 'Genovese' [1]; [3]): 17 % check
Potassium, Percent Increase Over the Untreated Check (on a % dry matter basis) (basil 'Genovese' [1]; [3]): 17 % check
Protein, Percent Increase Over the Untreated Check (on a % dry matter basis) (basil 'Genovese' [1]; [3]): 14 % check
Sodium, Percent Increase Over the Untreated Check (on a % dry matter basis) (basil 'Genovese' [1]; [3]): 27 % check
Soluble protein, Percent Increase Over the Untreated Check (on a % dry matter basis) (basil 'Genovese' [1]; [3]): 12 % check
Zinc, Percent Increase Over the Untreated Check (on a % dry matter basis) (basil 'Genovese' [1]; [3]): 38 % check
Phytotoxicity Chlorosis (basil 'Genovese' [2]; [6]): 8%
Phytotoxicity General (basil 'Genovese' [2]; [6]): 3%
Phytotoxicity Stunting (basil 'Genovese' [2]; [6]): 2%
Phytotoxicity Chlorosis (basil 'Genovese' [2]; [7]): 7%
Phytotoxicity General (basil 'Genovese' [2]; [7]): 7%
Phytotoxicity Stunting (basil 'Genovese' [2]; [7]): 7%
Phytotoxicity Chlorosis (basil 'Genovese' [2]; [8]): 5%
Phytotoxicity General (basil 'Genovese' [2]; [8]): 2%
Phytotoxicity Stunting (basil 'Genovese' [2]; [8]): 5%
Phytotoxicity Chlorosis (basil 'Genovese' [2]; [9]): 8%
Phytotoxicity General (basil 'Genovese' [2]; [9]): 8%
Phytotoxicity Stunting (basil 'Genovese' [2]; [9]): 10%
Phytotoxicity Chlorosis (basil 'Genovese' [2]; [10]): 2%
Phytotoxicity General (basil 'Genovese' [2]; [10]): 2%
Phytotoxicity Stunting (basil 'Genovese' [2]; [10]): 5%
Phytotoxicity Chlorosis (basil 'Genovese' [2]; [11]): 0%
Phytotoxicity General (basil 'Genovese' [2]; [11]): 7%
Phytotoxicity Stunting (basil 'Genovese' [2]; [11]): 8%

O=C1OC(=O)c2cccc3cccc1c23 [napthalic anhydride]
Yield Fresh weight (basil ‘Genovese’; [3]): 41.5 grams
Yield Fresh weight (basil ‘Genovese’; [4]): 24.5 grams
ADF, Percent Increase Over the Untreated Check (on a % dry matter basis) (basil 'Genovese' [1]; [5]): 4 % check
Calcium, Percent Increase Over the Untreated Check (on a % dry matter basis) (basil 'Genovese' [1]; [5]): −8 % check
Copper, Percent Increase Over the Untreated Check (on a % dry matter basis) (basil 'Genovese' [1]; [5]): −17 % check
Iron, Percent Increase Over the Untreated Check (on a % dry matter basis) (basil 'Genovese' [1]; [5]): 0 % check
Magnesium, Percent Increase Over the Untreated Check (on a % dry matter basis) (basil 'Genovese' [1]; [5]): −6 % check
Manganese, Percent Increase Over the Untreated Check (on a % dry matter basis) (basil 'Genovese' [1]; [5]): −16 % check
NDF, Percent Increase Over the Untreated Check (on a % dry matter basis) (basil 'Genovese' [1]; [5]): 1 % check
Phosphorous, Percent Increase Over the Untreated Check (on a % dry matter basis) (basil 'Genovese' [1]; [5]): −9 % check
Potassium, Percent Increase Over the Untreated Check (on a % dry matter basis) (basil 'Genovese' [1]; [5]): −23 % check
Protein, Percent Increase Over the Untreated Check (on a % dry matter basis) (basil 'Genovese' [1]; [5]): 3 % check
Sodium, Percent Increase Over the Untreated Check (on a % dry matter basis) (basil 'Genovese' [1]; [5]): −8 % check
Soluble protein, Percent Increase Over the Untreated Check (on a % dry matter basis) (basil 'Genovese' [1]; [5]): 31 % check
Zinc, Percent Increase Over the Untreated Check (on a % dry matter basis) (basil 'Genovese' [1]; [5]): −13 % check
ADF, Percent Increase Over the Untreated Check (on a % dry matter basis) (basil 'Genovese' [1]; [3]): 13 % check
Calcium, Percent Increase Over the Untreated Check (on a % dry matter basis) (basil 'Genovese' [1]; [3]): 2 % check
Copper, Percent Increase Over the Untreated Check (on a % dry matter basis) (basil 'Genovese' [1]; [3]): 0 % check
Iron, Percent Increase Over the Untreated Check (on a % dry matter basis) (basil 'Genovese' [1]; [3]): 14 % check
Magnesium, Percent Increase Over the Untreated Check (on a % dry matter basis) (basil 'Genovese' [1]; [3]): 12 % check
Manganese, Percent Increase Over the Untreated Check (on a % dry matter basis) (basil 'Genovese' [1]; [3]): 37 % check
NDF, Percent Increase Over the Untreated Check (on a % dry matter basis) (basil 'Genovese' [1]; [3]): 2 % check
Phosphorous, Percent Increase Over the Untreated Check (on a % dry matter basis) (basil 'Genovese' [1]; [3]): 22 % check
Potassium, Percent Increase Over the Untreated Check (on a % dry matter basis) (basil 'Genovese' [1]; [3]): −4 % check
Protein, Percent Increase Over the Untreated Check (on a % dry matter basis) (basil 'Genovese' [1]; [3]): 32 % check
Sodium, Percent Increase Over the Untreated Check (on a % dry matter basis) (basil 'Genovese' [1]; [3]): 33 % check
Soluble protein, Percent Increase Over the Untreated Check (on a % dry matter basis) (basil 'Genovese' [1]; [3]): 4 % check
Zinc, Percent Increase Over the Untreated Check (on a % dry matter basis) (basil 'Genovese' [1]; [3]): 47 % check
Phytotoxicity Chlorosis (basil 'Genovese' [2]; [6]): 0%
Phytotoxicity General (basil 'Genovese' [2]; [6]): 5%
Phytotoxicity Stunting (basil 'Genovese' [2]; [6]): 0%
Phytotoxicity Chlorosis (basil 'Genovese' [2]; [7]): 2%
Phytotoxicity General (basil 'Genovese' [2]; [7]): 7%
Phytotoxicity Stunting (basil 'Genovese' [2]; [7]): 5%
Phytotoxicity Chlorosis (basil 'Genovese' [2]; [8]): 3%
Phytotoxicity General (basil 'Genovese' [2]; [8]): 7%
Phytotoxicity Stunting (basil 'Genovese' [2]; [8]): 0%
Phytotoxicity Chlorosis (basil 'Genovese' [2]; [9]): 2%
Phytotoxicity General (basil 'Genovese' [2]; [9]): 10%
Phytotoxicity Stunting (basil 'Genovese' [2]; [9]): 7%
Phytotoxicity Chlorosis (basil 'Genovese' [2]; [10]): 2%
Phytotoxicity General (basil 'Genovese' [2]; [10]): 5%
Phytotoxicity Stunting (basil 'Genovese' [2]; [10]): 0%
Phytotoxicity Chlorosis (basil 'Genovese' [2]; [11]): 2%
Phytotoxicity General (basil 'Genovese' [2]; [11]): 3%
Phytotoxicity Stunting (basil 'Genovese' [2]; [11]): 7%
